Results as given in US10207988B2, “Methods and compositions for treatment of cancer and autoimmune disease” (THE JACKSON LABORATORY, priority 2011, dated 2019).

How the values were obtained:
[1] = system: phospho-H2AX foci in mouse primary splenocytes (AID+/+ and AID−/−); assay: phospho-H2AX foci in activated splenocytes exposed to DIDS; assay type: cell-based; conditions: 150 micromolar DIDS
From the text: Mouse primary splenocytes isolated from 8-12 week old wild type (AID+/+) and AID-knockout (AID−/−) mice as described in Example 1 were exposed to 150 micromolar DIDS, and activated by anti-CD40 antibody plus interleukin-4, fixed and stained for the DNA break marker phospho-H2AX and for nuclear DNA using the fluorescent DNA staining dye 4′,6-diamidino-2-phenylindole (DAPI). In FIG. 16A the fraction of cells containing 0, 1-2, or greater than 2 phospho-H2AX positive foci was quantified for AID+/+ (filled bars) and AID−/− (open bars) cells. […] In FIG. 16B the proportion of phospho-H2AX positive cells (filled bars) versus phospho-H2AX negative cells (open bars) was quantified for AID+/+ in comparison to AID−/− cultures. […] In FIG. 16C the number of foci per cell was quantified for DIDS-treated AID+/+ (filled bars) versus AID−/− (open bars) cells. Data are expressed as the absolute number of cells (y-axis) harboring the indicated number of phosphor-H2AX foci (from 0 to >20; x-axis).

[2] = system: RAD51 foci in primary mouse B-cells; assay: RAD51 focus formation after ionizing radiation (immunofluorescence); assay type: cell-based
Experimental: Primary mouse B-cells were isolated from spleen of wild type C57BL/6J mice by magnetic bead based sorting (Miltenyi) to purify B220+ IgM+ B-cells. B-cells were then […], exposed to 0 or 2.5 Gy ionizing radiation in a Cs137 irradiator, and then stained by immunofluorescence for foci of the homologous recombination factor RAD51. The fraction of cells in each culture showing formation of RAD51 foci within the nucleus is reported. Irradiated cells not cultured with DIDS (0 μM) show efficient focus formation. […] Error bars show the standard error of the mean (S.E.M) from three independent experiments.

[3] = system: primary chronic lymphocytic leukemia (CLL) cells; assay: viable cell counts of primary human CLL cells treated with DIDS; assay type: cell-based; conditions: 150 μM or 600 μM DIDS, days 2, 4, 6, 8, relative to untreated control
Experimental: Blood samples (8-16 mL) from patients were collected via peripheral bleed into BD Vacutainer CPT tubes (BD, Franklin Lakes, N.J.), centrifuged to sequester red blood cells below the separation gel according to manufacturer instructions, and transported within 24 hours to the Jackson Laboratory. Upon receipt, peripheral blood mononuclear cells (PBMC) were isolated from samples according to manufacturer specifications. White blood cell (WBC) counts from 14 primary chronic lymphocytic leukemia (CLL) samples from human patients were calculated from complete blood count (CBC) with differentials. Calculated values were compared with empirical cell counts following cell separation and overnight shipping. […] The primary CLL samples (WBC) were diluted to standard concentration and 3.0×10^6 cells were seeded in cultures. Replicate cultures were supplemented with 0 μM (n=5), 150 μM DIDS (n=4), or 600 μM DIDS (n=2). Viable cell counts were determined by manual counting using a hemacytometer on days 2, 4, 6, and 8 of culture.

[4] = system: BXSB.Yaa Cd8/IL15−/− mice; assay: mouse systemic lupus erythematosus (SLE) model treated with DIDS; assay type: in vivo
From the text: BXSB.Yaa Cd8/IL15−/− mice are an established model for SLE. These mice display many characteristics of human SLE including hypergammaglobulinemia, circulating antinuclear antibodies and immune complex medicated glomerulonephritis, and ultimately succumb to disease around 24 weeks of age (Andrews et al. 1978, J Exp Med 148: 1198-215; Dixon et al. 1978, Arthritis Rheum 21: S64-7; Izui et al. 2000, Int Rev Immunol 19: 447-72). Genetic deletion of Cd8a and IL15 from the model results in a similar clinical phenotype which appears much early with survival averaging 14 weeks of age (McPhee et al. 2011, J Immunol 187:4695-4704)
Six week old male BXSB.Cg-Cd8a<tm1Mak> IL15<tm1Imx>/Dcr (abbreviated as BXSB.Yaa Cd8/IL15−/−) mice were retro-orbitally bled into heparin primed tubes to collect serum. 25 mg/kg (n=5) or 50 mg/kg DIDS (n=6) in 4% potassium bicarbonate with PBS or an equivalent volume of 4% potassium bicarbonate (n=2 and n=4) was administered intraperitoneally on day 0, and every seven days for five weeks. Mice were weighed weekly and serum was collected at 14 day intervals for a 5-week period. These mice were then aged for survival. The serum was analyzed by ELISA for IgG1 and IgG2b content. For the ELISA plates were coated with goat anti-mouse Ig (IgG1 or IgG2b) and incubated overnight at […] Plates were washed three times and P-nitrophenyl Phosphate (p-NPP, AMRESCO) was applied, incubated until standards developed adequately and read on a SpectraMax ELISA plate reader using SoftmaxPro software. Data are expressed as concentration of IgG (mg/ml) based on titration of isotype-specific purified mouse standards. […] Survival data was analyzed using Graphpad Prism software and assessed for statistical significance using both the log-rank Mantel Cox with (FIG. 20A for the 25 mg/kg group with a p value of 0.4289 and FIG. 20B for the 50 mg/kg group with a p value of 0.3698) and Gehan-Breslow-Wilcoxan tests (FIG. 21A for the 25 mg/kg group with a p value of 0.7003 and FIG. 21B for the 50 mg/kg group with a p value of 0.7505).

[5] = system: AID-negative (AID−) primary human CLL cells; assay: survival of primary human CLL cells cultured with DIDS (manual cytometry); assay type: cell-based; conditions: 30 micromolar DIDS, 2, 4 or 8 days, versus untreated
Experimental: AID-expressing (AID+) or AID-negative (AID−) primary human CLL cells were cultured as described in Example 4. Cells were cultured in basic RPMI-1640 medium without supplementation (untreated; triangle in FIG. 17) or with 30 micromolar DIDS. Open circles represent the data for AID-negative cells treated with 30 micromolar DIDS and filled boxes represent the data for AID-positive cells treated with 30 micromolar DIDS. The cell survival was scored by manual cytometry for viable cells after 2, 4, or 8 days of exposure.
Eight AID+ and eight AID− CLL samples were cultured in basic RPMI-1640 medium plus 30 micromolar DIDS, and survival was scored by manual cytometry for viable cells after 2, 4, 6, or 8 days. […] A total of 117 lymphoma or leukemia patients were studies, of which 106 were CLL patients. In 47% AID expression was determined by RT-PCR.

## O=S(=O)([O-])c1cc(N=C=S)ccc1/C=C/c1ccc(N=C=S)cc1S(=O)(=O)[O-].[Na+].[Na+] [DIDS, 4,4′diisothiocyanostilbene-2,2′-disulfonic acid]
[1]; AID+/+ in comparison to AID−/− cultures
  proportion of phospho-H2AX positive cells: higher percentage of phospho-H2AX positive cells
[1]; AID+/+ versus AID−/− cells
  fraction of cells with greater than 2 phospho-H2AX foci: significant higher fraction of cells with greater than 2 foci
[2]; 150 μM DIDS, 2.5 Gy ionizing radiation
  fraction of cells with RAD51 foci: completely inhibits radiation-induced RAD51 focus formation
[2]; 150 µM DIDS, irradiated cells (legend of FIG. 22)
  fraction of cells with RAD51 foci: completely inhibits radiation-induced RAD51 focus formation
[3]
  viable cell counts: significant decline in viable cell counts
[4]; 25 mg/kg DIDS intraperitoneally every seven days
  IgG2b serum content (ELISA): striking decrease
[4]; 25 mg/kg DIDS intraperitoneally every seven days for five weeks, versus controls
  body weight: no weight difference
[4]; DIDS intraperitoneally every seven days
  IgG1 serum content (ELISA): No significant difference
[5]
  cell survival (viable cells): indistinguishable
